Earlier results as cited in US10907142B2, “Oligosaccharides comprising an aminooxy group and conjugates thereof” (Genzyme Corporation, priority 2007, dated 2021).

Test system: skeletal and cardiac muscle glycogen
Conditions: murine model of Pompe disease; compared with recombinant human GAA; conjugate prepared by the method of U.S. Pat. No. 7,001,994

conjugate of the lysosomal enzyme acid α-glucosidase (GAA) with a a bis-M6P oligosaccharide: GAA coupled with a bis-M6P oligosaccharide by the method of U.S. Pat. No. 7,001,994
reducing skeletal and cardiac muscle glycogen: more effective in reducing skeletal and cardiac muscle glycogen than recombinant human GAA
